Reference: patent publication US20230220047A1, “PEPTIDES FOR TREATMENT OF SEPSIS AND CANCER” (NORWEGIAN UNIVERSITY OF SCIENCE AND TECHNOLOGY (NTNU), priority 2020, published 2023)
Entries after “also recorded” stand apart in the source; their conditions may differ.

Assays:
[1] = test system: TLR9; format: cell-based, human; conditions: 15 μM, 1 h pre-treatment, CpG 2006
Method: CpG 2006 (10 μM) was used as specific TLR9 ligand. (A) Results of LDH assay on SNs from stimulated cells. (B-E) Results of qPCR analysis of cytokine expression with TaqMan probes. (F) Results of ELISA for secreted IL-113 levels. Cells were pre-treated with 15 μM peptides for 1 h, followed by addition of CpG 2006 to the cell culture media.
We then tested whether P7-Pen could alter signaling via another endosomal PRR: TLR9, which recognises specific unmethylated CpG motifs prevalent in microbial DNA. In humans, TLR9 is almost exclusively expressed in B cells and plasmacytoid dendritic cells (pDC), while in mice TLR9 is expressed more widely, including in myeloid immune cells. To test the effect of P7-Pen on signaling via human TLR9 we used a model system of THP-1 cells expressing an inducible TLR9^CHERRY construct. 48 hr after induction of TLR9 expression by doxycycline, undifferentiated THP-1 TLR9^CHERRY cells were pre-treated with control or P7-Pen peptide for 1 hr, then stimulated with the Class B CpG oligonucleotide CpG 2006 ODN (a human-specific TLR9 agonist). […] Thus, P7 peptide could also be used to inhibit the expression of selected cytokines mediated by TLR9 in human disease.

[2] = test system: Jurkat cells; test: Proliferation of Jurkat T cell leukaemia cells; format: cell-based, human; conditions: 15 μM or 20 μM, 48 h
Method: Jurkat cells were seeded at 5000 cells/well (as indicated by dotted line) and incubated in medium supplemented with water, penetratin, P7-Pen or P7-N4-Pen. Peptides were included at 15 μM (A) or 20 μM (B). Cells were incubated for 48 hours then counted. […] Results are based on 3 biological replicates, error bars show standard deviation of mean.
SW480 (ATCC CCL-228) and Jurkat (ATCC Clone E6-1; TIB-152) cells were cultured in RPMI 1640 (Sigma-Aldrich, Schnelldorf, Germany) supplemented with 10% heat-inactivated FCS, penicillin/streptomycin (Life Technologies) and 20 mM L-Glutamine. THP-1 cells (ATCC TIB-202) were cultured in RPMI-1640 (high-glucose, ATCC) supplemented with 10% heat inactivated foetal calf serum (FCS), 100 nM penicillin/streptomycin and 5 μM β-mercaptoethanol (Sigma). THP-1 cells were differentiated with 60 ng/ml phorbol 12-myristate 13-acetate (PMA, Sigma) for 72 h, followed by 24 or 48 h in medium without PMA.
The peptides were tested against the SW480 cell line in the presence and absence of LPS.

[3] = test system: TLR4; test: Western blot of LPS signalling in murine immortalized BMDMs; format: cell-based, mouse; conditions: murine macrophages, 10 μM
Method: Western blot analysis of lysates from cells pretreated with media containing controls (water, DMSO or 10 μM control peptide C3-Pen) or P7-Pen peptide for 30 min before stimulation with LPS (K12 LPS, 100 ng/ml) for designated time periods.
Protein pellets were dissolved by heating protein pellets for 10 min at 95° C. in buffer containing 4 M urea, 1 SDS (Sigma) and NuPAGE® LDS Sample Buffer (4×) (Thermo Fisher Scientific). Otherwise, lysates were made using 1× RIPA lysis buffer (150 mM NaCl, 50 mM TrisHCl (pH 7.5), 1% Triton X100, 5 mM EDTA, protease inhibitors, phosphatase inhibitors). For Western blot analysis we used pre-cast protein gels NuPAGE™ Novex™ and iBlot Transfer Stacks iBlot Gel Transfer Device (Thermo Fisher Scientific). Proteins were transferred to the membrane by dry-blotting using iBlot® 2 NC Regular/Mini Stacks (Life Technologies) in the iBlot 2 Dry Blotting System (Life Technologies). After secondary antibody incubation, membranes were washed and incubated with HRP substrate solution (SuperSignal™ West Femto Maximum Sensitivity Substrate (Thermo Fisher Scientific)). Images were taken using Odyssey® Fc (LI-CORE). Quantification graphs were generated by the analysis of signal intensities for protein bands (protein of interest and endogenous loading control—β-tubulin from the same membrane) using Odyssey software (LI-CORE). Data were normalised to the expression levels of β-tubulin and presented as a relative fold change to the control sample.
In addition, pre-treatment of murine macrophages with P7-Pen inhibited LPS-mediated phosphorylation of TBK1 and IκBα, and decreased phosphorylation of p38 MAPK (FIG. 23).

[4] = test system: TLR4; test: Primary human macrophages stimulated with LPS: cytokine mRNA and p38 MAPK phosphorylation; format: cell-based; conditions: primary human macrophages (data not shown)
Method: Primary human macrophages (PBMC derived, differentiated in media with 10% human serum and M-CSF 20 ng/ml, 7 days) were stimulated with K12 LPS (100 ng/ml), FSL-1 (100 ng/ml) or CL075 (3 μg/ml). […] (B) qPCR for mRNA expression of IFNβ, IL-6, TNF and IL-1β, average for three biological replicates, error bars ±SD.
The effect of P7-Pen on TLR2-mediated pro-inflammatory cytokine expression was investigated.

## Ac-ITVYASVTLTGRQIKIWFQNRRMKWKK-NH2 [Peptide P7-Pen]
[1]
  TLR9-mediated IFNβ and CXCL10 expression: strongly inhibited
  TLR9-mediated expression of TNF and IL-1β: to some extent inhibited
[2]
  effect on proliferation of Jurkat cells: possible anti-proliferative effect; also recorded: clear anti-proliferative effect
[3]
  LPS-mediated phosphorylation of TBK1 and IκBα: inhibited
[3]; LPS
  phosphorylation of p38 MAPK: decreased
[4]
  TLR4-mediated expression of TNF, IL-6 and IL-1β mRNA: totally abrogated
